Measured values from patent US11331289B2, “Antimicrobial composition” (priority 2017, dated 2022).

Legend:
[1] = system: Methicillin-Resistant Staphylococcus pseudintermedius (MRSP) 16125, 16127; assay: Oxyclo MIC of MRSP strains; format: cell-based
S. aureus n°16 315 = assay: Time-killing curve, broth macrodilution; format: cell-based, Staphylococcus aureus
Protocol: (§1) The time-killing curve is used to determine the bactericidal or bacteriostatic activity of the antibimicrobial substances. Time-killing curves of Oxyclozanide against canine isolates of Staphylococcus aureus and Staphylococcus pseudintermedius were obtained using broth macrodilution method. After contact of different fixed amounts of Oxyclozanide with an inoculum, viable bacteria are counted immediately after contact and after 1, 3, 6 and 24 hours. Counting is performed on agar medium without antimicrobial substance.
(§2) Results are analyzed by plotting log10 CFU/ml versus time for each tested concentration. Bactericidal activity as defined by 99.9% killing of the inoculum is determined from time-killing curves by noting the presence of a ≥3 log10 decrease in CFU/ml.
(§3) Bacterial strains were sub-cultured twice from one cryobead on Mueller Hinton agar and incubated at 37° C. for 18-24 hours. From the second subcultures, isolated colonies were transferred into tubes containing 2 ml of Mueller Hinton Broth in order to obtain bacterial suspensions at 10^8 CFU/ml, knowing that an optical density of 0.1 at 620 nm corresponds to bacterial suspension at 10^8 CFU/ml. Then, bacterial suspensions were adjusted between 5 10^7 and 1 10^8 CFU/ml by dilution in Mueller Hinton broth.
(§4) For each concentration of Oxyclozanide to be tested, 50 μl of working solution concentrated 100× and […] of inoculum were added to 5 ml of Mueller-Hinton broth. Thus, the range of tested concentrations was from 0.125 to 8 μg/ml and the concentration of micro-organism was between 1 10^6 and 2 10^6 CFU/ml.
(§5) At the same time, a tube without Oxyclozanide was prepared: 50 μl of DMSO and 100 μl of inoculum were added to 5 ml of Mueller-Hinton broth and used as growth control. Tubes were incubated at 36° C. under agitation.
(§6) The numbers of viable bacteria were determined immediately after contact (TO) and after 1, 3, 6 and 24 h of incubation.
(§7) At each time, samples of each tube were taken and dilutions were performed in Mueller-Hinton broth. Then, dilutions were spread on Mueller Hinton agar with spiral plater. After 18 h of incubation at 36° C., counting of colonies was performed with automatic colony counter which determine the concentrations of viable bacteria. The technique employed made it possible to quantify bacterial concentrations as low as 20 CFU/ml.
(§8) Time-killing curves were plotted for each concentration of Oxyclozanide using Microsoft Excel software. The number or surviving bacteria was expressed as log10 CFU/ml. The time-killing curves of each strain represent the decrease in the viable bacteria count as a function of time for the Oxyclozanide concentrations concerned.
(§9) Bactericidal activity as defined by 99.9% killing of the inoculum is determined from time-killing curves by noting the presence of a ≥3 log10 decrease in CFU/ml.

S. aureus n°16 302 = assay: Time-killing curve, broth macrodilution; format: cell-based, Staphylococcus aureus
Protocol: as §1, §2, §3, §4, §5, §6, §7, §8, §9

## O=C(Nc1cc(Cl)cc(Cl)c1O)c1c(O)c(Cl)cc(Cl)c1Cl [Oxyclozanide]
[1]; MRSP 16125
  MIC: 0.5 µg/mL
[1]; MRSP 16127
  MIC: 0.25 µg/mL
S. aureus n°16 315; 0.25 μg/ml (½ MIC), 1 h
  Bacteria reducing rate: 0.3 Δ log10 CFU/ml
  Viable bacteria count: 6.7 Log10 CFU/ml
S. aureus n°16 315; 0.25 μg/ml (½ MIC), 3 h
  Bacteria reducing rate: 0.3 Δ log10 CFU/ml
  Viable bacteria count: 6.7 Log10 CFU/ml
S. aureus n°16 315; 0.25 μg/ml (½ MIC), 6 h
  Bacteria reducing rate: 0.7 Δ log10 CFU/ml
S. aureus n°16 315; 0.25 μg/ml (½ MIC), 24 h
  Bacteria reducing rate: 1.8 Δ log10 CFU/ml
S. aureus n°16 315; 0.5 μg/ml (MIC), 1 h
  Bacteria reducing rate: −0.1 Δ log10 CFU/ml
S. aureus n°16 315; 0.5 μg/ml (MIC), 3 h
  Bacteria reducing rate: 0.1 Δ log10 CFU/ml
  Viable bacteria count: 6.6 Log10 CFU/ml
S. aureus n°16 315; 0.5 μg/ml (MIC), 6 h
  Bacteria reducing rate: −0.2 Δ log10 CFU/ml
S. aureus n°16 315; 0.5 μg/ml (MIC), 24 h
  Bacteria reducing rate: 0.5 Δ log10 CFU/ml
  Viable bacteria count: 7.0 Log10 CFU/ml
S. aureus n°16 315; 1 μg/ml (2 MIC), 1 h
  Bacteria reducing rate: 0.0 Δ log10 CFU/ml
S. aureus n°16 315; 1 μg/ml (2 MIC), 3 h
  Bacteria reducing rate: 0.1 Δ log10 CFU/ml
  Viable bacteria count: 6.6 Log10 CFU/ml
S. aureus n°16 315; 1 μg/ml (2 MIC), 6 h
  Bacteria reducing rate: −0.3 Δ log10 CFU/ml
S. aureus n°16 315; 1 μg/ml (2 MIC), 24 h
  Bacteria reducing rate: −1.2 Δ log10 CFU/ml
S. aureus n°16 315; 2 μg/ml (4 MIC), 1 h
  Bacteria reducing rate: 0.1 Δ log10 CFU/ml
  Viable bacteria count: 6.5 Log10 CFU/ml
S. aureus n°16 315; 2 μg/ml (4 MIC), 3 h
  Bacteria reducing rate: 0.2 Δ log10 CFU/ml
  Viable bacteria count: 6.6 Log10 CFU/ml
S. aureus n°16 315; 2 μg/ml (4 MIC), 6 h
  Bacteria reducing rate: −1.1 Δ log10 CFU/ml
S. aureus n°16 315; 2 μg/ml (4 MIC), 24 h
  Bacteria reducing rate: −2.3 Δ log10 CFU/ml
S. aureus n°16 315; 4 μg/ml (8 MIC), 1 h
  Bacteria reducing rate: 0.0 Δ log10 CFU/ml
S. aureus n°16 315; 4 μg/ml (8 MIC), 3 h
  Bacteria reducing rate: −0.7 Δ log10 CFU/ml
  Viable bacteria count: 5.7 Log10 CFU/ml
S. aureus n°16 315; 4 μg/ml (8 MIC), 6 h
  Bacteria reducing rate: −1.8 Δ log10 CFU/ml
  Viable bacteria count: 4.6 Log10 CFU/ml
S. aureus n°16 315; 4 μg/ml (8 MIC), 24 h
  Bacteria reducing rate: −5.1 Δ log10 CFU/ml
S. aureus n°16 315; 8 μg/ml (16 MIC), 1 h
  Bacteria reducing rate: 0.1 Δ log10 CFU/ml
S. aureus n°16 315; 8 μg/ml (16 MIC), 3 h
  Bacteria reducing rate: −1.5 Δ log10 CFU/ml
  Viable bacteria count: 4.8 Log10 CFU/ml
S. aureus n°16 315; 8 μg/ml (16 MIC), 6 h
  Bacteria reducing rate: −2.3 Δ log10 CFU/ml
S. aureus n°16 315; 8 μg/ml (16 MIC), 24 h
  Bacteria reducing rate: −5.0 Δ log10 CFU/ml
S. aureus n°16 302; 0.25 μg/ml (½ MIC), 1 h
  Bacteria reducing rate: 0.0 Δ log10 CFU/ml
S. aureus n°16 302; 0.25 μg/ml (½ MIC), 3 h
  Bacteria reducing rate: 0.1 Δ log10 CFU/ml
S. aureus n°16 302; 0.25 μg/ml (½ MIC), 6 h
  Bacteria reducing rate: 0.6 Δ log10 CFU/ml
S. aureus n°16 302; 0.25 μg/ml (½ MIC), 24 h
  Bacteria reducing rate: 1.7 Δ log10 CFU/ml
S. aureus n°16 302; 0.5 μg/ml (MIC), 1 h
  Bacteria reducing rate: 0.0 Δ log10 CFU/ml
S. aureus n°16 302; 0.5 μg/ml (MIC), 3 h
  Bacteria reducing rate: 0.0 Δ log10 CFU/ml
S. aureus n°16 302; 0.5 μg/ml (MIC), 6 h
  Bacteria reducing rate: −0.3 Δ log10 CFU/ml
S. aureus n°16 302; 0.5 μg/ml (MIC), 24 h
  Bacteria reducing rate: 1.6 Δ log10 CFU/ml
S. aureus n°16 302; 1 μg/ml (2 MIC), 1 h
  Bacteria reducing rate: 0.0 Δ log10 CFU/ml
S. aureus n°16 302; 1 μg/ml (2 MIC), 3 h
  Bacteria reducing rate: 0.0 Δ log10 CFU/ml
S. aureus n°16 302; 1 μg/ml (2 MIC), 6 h
  Bacteria reducing rate: −0.2 Δ log10 CFU/ml
S. aureus n°16 302; 1 μg/ml (2 MIC), 24 h
  Bacteria reducing rate: 1.5 Δ log10 CFU/ml
  Viable bacteria count: 7.9 Log10 CFU/ml
S. aureus n°16 302; 2 μg/ml (4 MIC), 1 h
  Bacteria reducing rate: 0.0 Δ log10 CFU/ml
S. aureus n°16 302; 2 μg/ml (4 MIC), 3 h
  Bacteria reducing rate: −0.1 Δ log10 CFU/ml
S. aureus n°16 302; 2 μg/ml (4 MIC), 6 h
  Bacteria reducing rate: −0.5 Δ log10 CFU/ml
  Viable bacteria count: 6.0 Log10 CFU/ml
S. aureus n°16 302; 2 μg/ml (4 MIC), 24 h
  Bacteria reducing rate: −2.5 Δ log10 CFU/ml
S. aureus n°16 302; 4 μg/ml (8 MIC), 0 h
  Viable bacteria count: 6.5 Log10 CFU/ml
S. aureus n°16 302; 4 μg/ml (8 MIC), 1 h
  Bacteria reducing rate: −0.2 Δ log10 CFU/ml
S. aureus n°16 302; 4 μg/ml (8 MIC), 3 h
  Bacteria reducing rate: −0.7 Δ log10 CFU/ml
  Viable bacteria count: 5.8 Log10 CFU/ml
S. aureus n°16 302; 4 μg/ml (8 MIC), 6 h
  Bacteria reducing rate: −2.3 Δ log10 CFU/ml
S. aureus n°16 302; 4 μg/ml (8 MIC), 24 h
  Bacteria reducing rate: −4.1 Δ log10 CFU/ml
  Viable bacteria count: 2.4 Log10 CFU/ml
S. aureus n°16 302; 8 μg/ml (16 MIC), 1 h
  Bacteria reducing rate: −0.8 Δ log10 CFU/ml
  Viable bacteria count: 5.7 Log10 CFU/ml
S. aureus n°16 302; 8 μg/ml (16 MIC), 3 h
  Bacteria reducing rate: −2.3 Δ log10 CFU/ml
S. aureus n°16 302; 8 μg/ml (16 MIC), 6 h
  Bacteria reducing rate: −3.8 Δ log10 CFU/ml
  Viable bacteria count: 2.7 Log10 CFU/ml
S. aureus n°16 302; 8 μg/ml (16 MIC), 24 h
  Bacteria reducing rate: −5.2 Δ log10 CFU/ml
